Results from patent US20230332230A1, “BIOMARKERS AND USES THEREOF IN THE TREATMENT OF CHRONIC HEPATITIS B INFECTION” (Janssen Sciences Ireland Unlimited Company, priority 2020, published 2023).

Key:
Assay type in all cases: in vivo, human
[1] = tested on: chronic hepatitis B (CHB) patients; assay: Logistic regression model predicting viral relapse before 3 months after stop of treatment; settings: Table 13; model with treatment regimen, EOT HBsAg, baseline HBeAg status and all SNPs predicting VR
Method: Prediction of Virological Relapse: The receiver operating characteristic (ROC) curve was analyzed for treatment regimen, EOT HBsAg (≥ 100 IU/mL vs < 100 IU/mL), baseline HBeAg status, all 30 SNPs associated to virological relapse (VR), or a combination of these covariates, in predicting virological relapse (VR) after stop of treatment are represented on FIG. 22 (3 months), FIG. 23 (6 months), FIG. 24 (1 year) and FIG. 25 (2 years).

[2] = tested on: chronic hepatitis B (CHB) patients; assay: Sustained clinical response after discontinuation of NUC treatment (logistic regression)
Text: Patients and Study Design: In this multi-center prospective study in Taiwan, 242 CHB patients were enrolled while in their last half year of a minimum 3-year treatment regimen with direct antivirals. Of them, 47 were excluded due to protocol violation, screening failure, lost to follow-up, withdrawal by the subject, use of immune related therapy, or on-treatment clinical relapse. An additional 14 were excluded as the analysis required patients to be hepatitis B e-antigen (HBeAg) negative, hepatitis virus (HBV) DNA < 60 IU/mL, and alanine transaminase (ALT) < 80 U/L at the last on-treatment visit, leaving 186 patients eligible for analysis. Patients were followed for up to two years after treatment discontinuation while assessing virological and clinical relapse, provided that treatment was not re-initiated. Virological relapse was defined as HBV DNA ≥ 2000 IU/mL. Clinical relapse was defined as ALT level ≥ 2x ULN in addition to a virological relapse. […] Cumulative incidence of virological and clinical relapse after stop of treatment was assessed by Kaplan-Meier curves including the log-rank test. […] Considering that HBsAg status was representative of disease progression, the association between the SNPs and sustained clinical response was assessed using a logistic model, considering HBsAg levels (high (≥ 100 IU/mL) vs. low (< 100 IU/mL)) at the last visit before end of antiviral treatment. […]

[3] = tested on: chronic hepatitis B (CHB) patients; assay: Time to virological relapse after discontinuation of NUC treatment (Cox proportional hazard regression); settings: for HR: hazard ratio for virological relapse after stop of treatment, treatment regimen tenofovir vs entecavir
Text: (§1) Patients and Study Design: In this multi-center prospective study in Taiwan, 242 CHB patients were enrolled while in their last half year of a minimum 3-year treatment regimen with direct antivirals. Of them, 47 were excluded due to protocol violation, screening failure, lost to follow-up, withdrawal by the subject, use of immune related therapy, or on-treatment clinical relapse. An additional 14 were excluded as the analysis required patients to be hepatitis B e-antigen (HBeAg) negative, hepatitis virus (HBV) DNA < 60 IU/mL, and alanine transaminase (ALT) < 80 U/L at the last on-treatment visit, leaving 186 patients eligible for analysis.
(§2) Patients were followed for up to two years after treatment discontinuation while assessing virological and clinical relapse, provided that treatment was not re-initiated. Virological relapse was defined as HBV DNA ≥ 2000 IU/mL. Clinical relapse was defined as ALT level ≥ 2x ULN in addition to a virological relapse. A patient was denoted a sustained clinical responder in case no clinical and no virological relapse occurred during the entire follow-up period after treatment cessation.
(§3) Statistical Analysis: Continuous variables are presented as means ± standard deviations, categorical variables by counts and percentages. The Student t test and Fisher exact test were used to compare continuous and categorical covariates, respectively, between groups. Cumulative incidence of virological and clinical relapse after stop of treatment was assessed by Kaplan-Meier curves including the log-rank test. Cox proportional hazard regression analysis was applied for univariate and multivariate models of time to virological and clinical relapse. To assess associations to sustained clinical response, logistic regression analysis was performed. All statistical analyses were executed within the R(3.4.3) statistical software. Statistical tests were two-sided and considered significant at the 0.05 significance level.
(§4) Statistical Analysis of Genetics Data: All the statistical analyses were performed in R (3.4.3). The association between the SNPs and the time to clinical relapse and time to viral relapse was assessed using a Cox proportional hazard model, considering the prior treatment. • Surv(TIME_VIRAL_RELAPSE,STATUS_VIRAL_RELAPSE) ~ GENETIC + LAST_TREATMENT • Surv(TIME_CLINICAL _RELAPSE,STATUS_CLINICAL_RELAPSE) ~ GENETIC + LAST_TREATMENT
(§5) Merge With Genetic Data: For both clinical and virological relapse, the significant clinical covariates (Table 4 and Table 5) are merged with the corresponding significant hits from the GWAS analysis. Cox proportional regression analysis with lasso regularization is applied to assess the combined association of the clinical and genetic covariates to relapse. Note that a threshold was set to the absolute values of the coefficients to be included in the final Cox model, equal to 0.35 and 0.2 for clinical and virological relapse respectively.
(§6) Cumulative incidence of virological and clinical relapse after stop of treatment was assessed by Kaplan-Meier curves. In addition, Cox proportional hazard regression analysis (Therneau Terry M., et al., Statistics in Medicine. 2001, 20(13):2053-2054) was applied, obtaining univariate and multivariate models for time to virological and clinical relapse (model fits are provided in Table 23a and Table 23b for virological and clinical relapse respectively).
(§7) Statistical Analysis of Genetics Data: Considering that HBsAg status at the end of treatment and treatment regimen were predictive for onset of relapse, the association between the SNPs and onset of relapse was assessed using a Cox model^1 including HBsAg level at the last visit on treatment (high (≥ 100 IU/mL) vs. low (< 100 IU/mL)) and the antiviral treatment at enrollment (tenofovir vs. entecavir) as main effects. […]

[4] = tested on: chronic hepatitis B (CHB) patients; assay: Logistic regression model predicting clinical relapse before 6 months after stop of treatment; settings: Table 12; model with treatment regimen, EOT HBsAg and all SNPs predicting CR
Method: Prediction of Clinical Relapse: The receiver operating characteristic (ROC) curve was analyzed for treatment regimen, EOT HBsAg (≥ 100 IU/mL vs < 100 IU/mL), rs4668818, rs948006, rs2934456, rs77586835, rs75876539, rs8050261, rs1542951, rs231770, rs9277535, or a combination of these covariates, in predicting clinical relapse (CR) after stop of treatment.

[5] = tested on: chronic hepatitis B (CHB) patients; assay: Time to clinical relapse after discontinuation of NUC treatment (Cox proportional hazard regression)
Text: as §1, §2, §3, §4, §5, §6, §7

[6] = later after stopping entecavir treatment compared to tenofovir treatment, Example 1

SMILES: C[C@H](Cn1cnc2c(N)ncnc21)OCP(=O)(O)O [Tenofovir, tenofovir]
- Viral relapse before 3 months, odds ratio (Estimate) [1]: 3010
- Sustained clinical response, univariate analysis OR (95% CI) ([2]; Table 6, treatment regimen vs entecavir): 0.79 (0.29-2.03)
- Sustained clinical response, univariate analysis OR (95% CI) ([2]; Table 15, Example 2, vs entecavir): 0.79 (0.29-2.03)
- Virological relapse, multivariate analysis HR (95% CI) ([3]; Table 5, Example 1, Cox regression, treatment regimen vs entecavir, after stop of treatment): 3.02
- Virological relapse, univariate analysis HR (95% CI) ([3]; Table 5, Cox regression, treatment regimen vs entecavir, after stop of treatment, N = 186): 2.49 (1.77-3.49)
- Time to virological relapse, lasso regression, mean estimated hazard ratio ([3]; Table 11, clinical and genetic covariates, mean across 1000 iterations, vs entecavir): 2.662
- Virological relapse, multivariate analysis HR (95% CI) ([3]; Table 23a, Example 3, multivariate with age, baseline HBeAg, EOT HBsAg, vs entecavir): 2.97 (2.10-4.20)
- Virological relapse, multivariate analysis HR (95% CI) ([3]; Table 23a, Example 3, multivariate with age, baseline HBeAg, EOT HBsAg, vs entecavir, listed as tenofovir): 2.97
- Virological relapse, univariate analysis HR (95% CI) ([3]; Table 23a, Example 3, vs entecavir): 2.49 (1.77-3.49)
- HR ([3]; multivariate Cox model with HBsAg at end of treatment and all 33 SNPs (Table 27a)): 7.26
- HR ([3]; multivariate Cox model with HBsAg at end of treatment and the 17 Virological signature SNPs (Table 27b)): 7.06
- Clinical relapse before 6 months, odds ratio (Estimate) [4]: 4.008
- Clinical relapse, multivariate analysis HR (95% CI) ([5]; Table 4, Example 1, Cox regression, treatment regimen vs entecavir, after stop of treatment): 1.78 (1.20-2.64)
- Clinical relapse, multivariate analysis HR (95% CI) ([5]; Table 4, Example 1, Cox regression, treatment regimen vs entecavir, after stop of treatment, listed as tenofovir): 1.74
- Clinical relapse, univariate analysis HR (95% CI) ([5]; Table 4, Cox regression, treatment regimen vs entecavir, after stop of treatment, N = 186): 1.77 (1.19-2.62)
- Time to clinical relapse, lasso regression, mean estimated hazard ratio ([5]; Table 10, clinical and genetic covariates, mean across 1000 iterations, vs entecavir): 1.492
- Clinical relapse, multivariate analysis HR (95% CI) ([5]; Table 23b, Example 3, multivariate with age, EOT HBsAg, vs entecavir): 1.87 (1.26-2.78)
- Clinical relapse, multivariate analysis HR (95% CI) ([5]; Table 23b, Example 3, multivariate with age, EOT HBsAg, vs entecavir, listed as tenofovir): 1.80
- Clinical relapse, univariate analysis HR (95% CI) ([5]; Table 23b, Example 3, vs entecavir): 1.77 (1.19-2.62)
- Clinical relapse HR, Cox model including the Clinical SNP signature ([5]; Table 26b, HBsAg and treatment regimen as main effects plus six SNPs, vs entecavir): 1.89
- HR ([5]; hazard ratio for clinical relapse after stop of treatment, treatment regimen tenofovir vs entecavir, multivariate Cox model with HBsAg at end of treatment and all nine SNPs): 1.75

SMILES: C=C1[C@H](CO)[C@@H](O)C[C@@H]1n1cnc2c(=O)[nH]c(N)nc21 [Entecavir, entecavir]
- Onset of virological relapse, average delay [3, 6]: 119 days
- Onset of clinical relapse, average delay ([5]; among the 110 clinical relapsers, later after stopping entecavir compared to tenofovir, Example 3): 100 days
- Onset of clinical relapse, average delay [5, 6]: 115 days
